Laboratory results published in ChEMBL document CHEMBL3217474, “The structure based design of dual HDAC/BET inhibitors as novel epigenetic probes” (Medchemcomm, 2014).
Converted amounts (≈) assume the structure as drawn. The source made the active and inactive calls. The rule behind the calls is not given here.

Experiments:
[1] = Permeability of the compound in artificial membrane; assay type: physicochemical, cell membranes; conditions: PAMPA; read-out: permeability
[2] = target: T1, Bromodomain-containing protein 4 (Homo sapiens, UniProt O60885); assay: Inhibition of recombinant BRD4 bromodomain 1 (unknown origin) using histone H4 peptide as substrate incubated for 1 hr under dark condition by HTRF assay
[3] = Solubility of the compound by chemiluminescent nitrogen detection method; assay type: physicochemical
[4] = target: T2, Bromodomain-containing protein 3 (Homo sapiens, UniProt Q15059); assay: Binding affinity to BRD3 in human HL60 cell nuclear extracts assessed as inhibition of protein binding to N-I-BET functionalised sepharose beads at 10 uM after 1 hr by coomassie staining-based staining-based chemoproteomic profiling; conditions: HL-60
Target sequence in this assay (Q15059 2-726 limits assumed): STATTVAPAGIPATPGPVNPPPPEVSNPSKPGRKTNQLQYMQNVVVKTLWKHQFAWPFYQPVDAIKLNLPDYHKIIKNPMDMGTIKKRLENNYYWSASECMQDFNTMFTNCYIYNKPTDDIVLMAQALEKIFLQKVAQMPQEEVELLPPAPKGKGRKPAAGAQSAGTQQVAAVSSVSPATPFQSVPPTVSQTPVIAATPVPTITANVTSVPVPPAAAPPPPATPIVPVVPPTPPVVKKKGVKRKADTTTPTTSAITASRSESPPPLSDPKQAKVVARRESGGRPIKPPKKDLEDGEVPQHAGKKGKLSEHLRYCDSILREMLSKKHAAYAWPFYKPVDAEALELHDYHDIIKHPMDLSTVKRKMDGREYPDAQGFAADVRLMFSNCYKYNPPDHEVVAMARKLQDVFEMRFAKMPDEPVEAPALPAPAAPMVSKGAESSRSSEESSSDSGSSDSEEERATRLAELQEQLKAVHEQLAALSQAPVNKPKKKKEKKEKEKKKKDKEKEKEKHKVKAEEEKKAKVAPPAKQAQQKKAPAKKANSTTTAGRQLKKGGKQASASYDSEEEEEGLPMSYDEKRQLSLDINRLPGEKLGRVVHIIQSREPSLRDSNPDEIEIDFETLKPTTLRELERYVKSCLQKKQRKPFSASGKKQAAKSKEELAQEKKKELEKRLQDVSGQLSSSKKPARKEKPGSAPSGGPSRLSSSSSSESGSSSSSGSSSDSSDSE

Histone deacetylase 1 [5] = target: T3, Histone deacetylase 1 (Homo sapiens, UniProt Q13547)
T3 sequence (Q13547 whole entry): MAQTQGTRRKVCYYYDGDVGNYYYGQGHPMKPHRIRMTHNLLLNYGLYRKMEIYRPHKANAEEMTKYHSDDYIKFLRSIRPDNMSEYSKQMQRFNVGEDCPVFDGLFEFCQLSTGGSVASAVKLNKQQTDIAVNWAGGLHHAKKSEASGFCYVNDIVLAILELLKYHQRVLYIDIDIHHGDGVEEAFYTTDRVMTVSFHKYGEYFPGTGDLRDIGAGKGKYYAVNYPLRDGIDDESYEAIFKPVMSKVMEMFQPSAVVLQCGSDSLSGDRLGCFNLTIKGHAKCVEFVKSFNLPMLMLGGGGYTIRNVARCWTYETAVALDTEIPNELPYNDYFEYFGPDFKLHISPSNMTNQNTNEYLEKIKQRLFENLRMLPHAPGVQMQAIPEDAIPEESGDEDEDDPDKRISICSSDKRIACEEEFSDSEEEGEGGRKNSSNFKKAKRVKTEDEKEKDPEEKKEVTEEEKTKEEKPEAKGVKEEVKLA
Description: Inhibition of HDAC1 (unknown origin)

PBMC [6] = assay: Antiinflammatory activity in human PBMC assessed as inhibition of LPS-stimulated TNF-alpha production incubated for 30 mins prior to LPS-challenge measured after overnight incubation; assay type: functional, cell-based
[7] = target: T1, Bromodomain-containing protein 4; assay: Binding affinity to BRD4 in human HL60 cell nuclear extracts assessed as inhibition of protein binding to N-I-BET functionalised sepharose beads at 10 uM after 1 hr by coomassie staining-based staining-based chemoproteomic profiling; conditions: HL-60
cells = assay type: functional; conditions: Homo sapiens, 72 h
Description: Growth inhibition of human 11060 cells assessed as ATP level after 72 hrs by CellTiterGlo assay

MV4-11 = assay: cells; assay type: functional, cell-based; conditions: Homo sapiens, MV4-11, 72 h
Description: Growth inhibition of human MV4-11 cells assessed as ATP level after 72 hrs by CellTiterGlo assay

[8] = target: T4, Bromodomain-containing protein 2 (Homo sapiens, UniProt P25440); assay: Binding affinity to BRD2 in human HL60 cell nuclear extracts assessed as inhibition of protein binding to N-I-BET functionalised sepharose beads at 10 uM after 1 hr by coomassie staining-based chemoproteomic profiling; conditions: HL-60
Target sequence in this assay (P25440 whole entry, looked up): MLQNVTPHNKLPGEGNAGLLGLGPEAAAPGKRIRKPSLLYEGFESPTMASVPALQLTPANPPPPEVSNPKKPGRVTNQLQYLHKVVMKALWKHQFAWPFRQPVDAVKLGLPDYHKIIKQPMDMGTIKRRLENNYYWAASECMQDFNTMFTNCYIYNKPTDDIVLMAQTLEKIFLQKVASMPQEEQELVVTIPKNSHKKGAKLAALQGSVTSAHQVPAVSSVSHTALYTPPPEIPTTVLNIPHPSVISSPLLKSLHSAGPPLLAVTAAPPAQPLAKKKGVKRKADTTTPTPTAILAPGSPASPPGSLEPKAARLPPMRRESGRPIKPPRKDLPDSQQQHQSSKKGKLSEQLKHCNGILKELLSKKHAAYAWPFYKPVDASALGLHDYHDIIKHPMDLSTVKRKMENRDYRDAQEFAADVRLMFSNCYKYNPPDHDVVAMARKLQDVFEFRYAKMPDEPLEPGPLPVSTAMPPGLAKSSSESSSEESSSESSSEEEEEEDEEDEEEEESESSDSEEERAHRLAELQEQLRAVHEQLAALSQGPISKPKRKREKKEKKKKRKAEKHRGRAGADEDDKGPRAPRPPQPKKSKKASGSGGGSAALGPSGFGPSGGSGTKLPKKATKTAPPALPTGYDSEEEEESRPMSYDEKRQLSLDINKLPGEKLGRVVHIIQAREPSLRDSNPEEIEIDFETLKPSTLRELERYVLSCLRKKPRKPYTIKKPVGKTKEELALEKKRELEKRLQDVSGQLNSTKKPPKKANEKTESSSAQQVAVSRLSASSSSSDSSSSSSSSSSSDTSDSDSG

PBMC [9] = assay: Antiinflammatory activity in human PBMC assessed as inhibition of LPS-stimulated IL-6 production incubated for 30 mins prior to LPS-challenge measured after overnight incubation; assay type: functional, cell-based
Histone deacetylase 9 = Histone deacetylase 9 (Homo sapiens, UniProt Q9UKV0)
Chain of Histone deacetylase 9 (Q9UKV0 whole entry): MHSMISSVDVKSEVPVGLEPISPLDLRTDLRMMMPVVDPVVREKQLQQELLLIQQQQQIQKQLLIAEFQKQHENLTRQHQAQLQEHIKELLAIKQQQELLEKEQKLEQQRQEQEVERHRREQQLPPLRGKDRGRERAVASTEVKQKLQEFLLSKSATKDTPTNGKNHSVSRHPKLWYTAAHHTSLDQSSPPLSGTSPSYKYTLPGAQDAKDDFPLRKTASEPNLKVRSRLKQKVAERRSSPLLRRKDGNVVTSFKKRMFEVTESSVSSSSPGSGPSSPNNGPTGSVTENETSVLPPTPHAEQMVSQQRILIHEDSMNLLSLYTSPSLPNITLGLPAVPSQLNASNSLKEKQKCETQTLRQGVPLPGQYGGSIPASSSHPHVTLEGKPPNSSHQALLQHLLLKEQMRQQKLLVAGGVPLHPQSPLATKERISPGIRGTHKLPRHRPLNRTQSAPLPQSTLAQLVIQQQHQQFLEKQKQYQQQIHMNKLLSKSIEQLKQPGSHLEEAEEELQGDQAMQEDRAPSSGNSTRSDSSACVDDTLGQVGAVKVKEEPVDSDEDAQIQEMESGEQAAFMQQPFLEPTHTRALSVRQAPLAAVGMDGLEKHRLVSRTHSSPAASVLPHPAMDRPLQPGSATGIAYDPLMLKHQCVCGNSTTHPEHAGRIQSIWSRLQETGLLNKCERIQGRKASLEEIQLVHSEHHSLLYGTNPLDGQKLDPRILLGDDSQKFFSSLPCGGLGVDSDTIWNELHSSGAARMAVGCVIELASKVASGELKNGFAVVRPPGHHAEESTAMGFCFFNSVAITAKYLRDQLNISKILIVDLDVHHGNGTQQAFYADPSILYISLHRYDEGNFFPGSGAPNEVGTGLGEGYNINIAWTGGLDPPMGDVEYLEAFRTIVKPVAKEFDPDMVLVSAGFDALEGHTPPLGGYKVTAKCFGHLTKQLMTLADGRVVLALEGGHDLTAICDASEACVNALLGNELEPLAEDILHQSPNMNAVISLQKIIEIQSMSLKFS
Description: Inhibition of HDAC9 (unknown origin)

HL-60 = assay: cells; assay type: functional, cell-based; conditions: Homo sapiens, HL-60, 72 h
Description: Growth inhibition of human HL60 cells assessed as ATP level after 72 hrs by CellTiterGlo assay

[10] = target: T5, Protein deacetylase HDAC6 (Homo sapiens, UniProt Q9UBN7)
T5 sequence (Q9UBN7 whole entry): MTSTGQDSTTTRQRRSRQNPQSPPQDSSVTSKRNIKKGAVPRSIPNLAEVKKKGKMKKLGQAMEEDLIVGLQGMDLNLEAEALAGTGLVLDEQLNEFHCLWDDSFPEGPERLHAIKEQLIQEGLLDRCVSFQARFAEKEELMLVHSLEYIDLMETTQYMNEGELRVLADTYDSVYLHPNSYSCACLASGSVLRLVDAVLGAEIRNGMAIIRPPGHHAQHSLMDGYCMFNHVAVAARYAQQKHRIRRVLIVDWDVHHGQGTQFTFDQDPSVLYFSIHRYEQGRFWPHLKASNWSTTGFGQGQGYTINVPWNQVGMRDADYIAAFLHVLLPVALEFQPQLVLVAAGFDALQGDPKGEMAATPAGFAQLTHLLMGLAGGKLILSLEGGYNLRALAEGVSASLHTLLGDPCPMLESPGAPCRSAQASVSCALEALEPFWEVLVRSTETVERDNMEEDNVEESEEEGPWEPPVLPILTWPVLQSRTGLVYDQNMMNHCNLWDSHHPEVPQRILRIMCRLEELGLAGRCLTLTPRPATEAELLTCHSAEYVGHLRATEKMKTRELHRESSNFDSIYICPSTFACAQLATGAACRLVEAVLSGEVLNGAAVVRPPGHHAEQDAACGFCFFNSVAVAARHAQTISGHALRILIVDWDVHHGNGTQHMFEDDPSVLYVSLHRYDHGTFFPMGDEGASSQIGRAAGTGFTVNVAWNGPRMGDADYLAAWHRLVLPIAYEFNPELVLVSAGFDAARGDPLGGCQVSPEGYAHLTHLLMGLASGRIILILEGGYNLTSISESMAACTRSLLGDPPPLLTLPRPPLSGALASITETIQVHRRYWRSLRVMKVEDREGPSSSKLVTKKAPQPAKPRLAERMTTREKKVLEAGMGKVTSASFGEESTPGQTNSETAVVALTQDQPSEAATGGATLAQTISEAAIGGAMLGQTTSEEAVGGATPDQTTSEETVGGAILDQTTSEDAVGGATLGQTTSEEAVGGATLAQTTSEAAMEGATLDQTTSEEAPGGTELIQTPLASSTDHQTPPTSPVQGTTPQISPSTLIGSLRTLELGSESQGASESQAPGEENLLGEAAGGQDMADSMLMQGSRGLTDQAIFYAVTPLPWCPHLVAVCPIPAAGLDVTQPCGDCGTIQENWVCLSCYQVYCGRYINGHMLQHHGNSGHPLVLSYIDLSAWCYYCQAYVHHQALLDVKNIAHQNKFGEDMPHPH
Description: Inhibition of HDAC6 (unknown origin)

[11] = target: T1, Bromodomain-containing protein 4; assay: Inhibition of His6-tagged BRD4 (1 to 477) (unknown origin) by surface plasmon resonance analysis
[12] = target: T2, Bromodomain-containing protein 3; assay: Binding affinity to BRD3 in human HL60 cell nuclear extracts assessed as inhibition of protein binding to N-I-BET functionalised sepharose beads after 1 hr by coomassie staining-based chemoproteomic competition binding assay; design: species or system HL-60; conditions: read-out: Kd(app)
Target sequence in this assay (Q15059 whole entry): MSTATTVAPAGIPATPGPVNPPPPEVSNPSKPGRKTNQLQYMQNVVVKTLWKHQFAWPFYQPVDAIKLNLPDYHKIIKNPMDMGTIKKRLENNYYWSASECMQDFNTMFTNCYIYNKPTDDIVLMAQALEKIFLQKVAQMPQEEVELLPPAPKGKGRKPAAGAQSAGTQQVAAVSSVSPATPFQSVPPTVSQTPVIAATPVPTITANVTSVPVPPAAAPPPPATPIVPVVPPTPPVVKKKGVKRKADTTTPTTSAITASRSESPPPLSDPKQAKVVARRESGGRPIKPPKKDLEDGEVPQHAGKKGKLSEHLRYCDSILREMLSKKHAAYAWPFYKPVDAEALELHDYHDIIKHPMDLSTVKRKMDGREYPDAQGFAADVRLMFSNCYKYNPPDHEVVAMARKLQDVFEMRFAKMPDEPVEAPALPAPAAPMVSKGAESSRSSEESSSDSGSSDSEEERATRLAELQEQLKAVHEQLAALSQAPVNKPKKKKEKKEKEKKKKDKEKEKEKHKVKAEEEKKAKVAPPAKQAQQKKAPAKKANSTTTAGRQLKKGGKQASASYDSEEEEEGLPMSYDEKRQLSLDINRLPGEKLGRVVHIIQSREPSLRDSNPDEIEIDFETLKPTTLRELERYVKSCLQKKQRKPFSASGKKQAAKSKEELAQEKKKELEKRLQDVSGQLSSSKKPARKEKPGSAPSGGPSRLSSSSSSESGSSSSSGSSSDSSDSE

Histone deacetylase 2 = Histone deacetylase 2 (Homo sapiens, UniProt Q92769)
Chain of Histone deacetylase 2 (Q92769 whole entry): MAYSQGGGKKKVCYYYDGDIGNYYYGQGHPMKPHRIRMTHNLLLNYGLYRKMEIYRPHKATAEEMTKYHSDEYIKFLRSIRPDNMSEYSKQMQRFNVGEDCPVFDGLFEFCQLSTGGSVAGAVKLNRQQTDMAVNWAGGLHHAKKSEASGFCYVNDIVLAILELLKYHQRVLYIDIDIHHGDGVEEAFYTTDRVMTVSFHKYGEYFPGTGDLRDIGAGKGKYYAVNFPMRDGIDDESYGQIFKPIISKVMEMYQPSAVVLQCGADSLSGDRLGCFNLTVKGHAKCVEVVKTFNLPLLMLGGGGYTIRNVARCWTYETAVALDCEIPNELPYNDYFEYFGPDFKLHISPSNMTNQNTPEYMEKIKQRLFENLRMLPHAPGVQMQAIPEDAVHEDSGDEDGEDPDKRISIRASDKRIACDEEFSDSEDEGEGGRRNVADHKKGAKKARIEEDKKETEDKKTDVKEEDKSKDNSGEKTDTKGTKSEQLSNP
Description: Binding affinity to HDAC2 in human HL60 cell nuclear extracts assessed as inhibition of enzyme binding to N-SAHA functionalised sepharose beads after 1 hr by coomassie staining-based chemoproteomic competition binding assay

Histone deacetylase 1 [13] = target: T3, Histone deacetylase 1; remark: listed apart in the source
Description: Binding affinity to HDAC1 in human HL60 cell nuclear extracts assessed as inhibition of enzyme binding to N-SAHA functionalised sepharose beads after 1 hr by coomassie staining-based chemoproteomic competition binding assay

Histone deacetylase 8 = target: T6, Histone deacetylase 8 (Homo sapiens, UniProt Q9BY41)
T6 sequence (Q9BY41 whole entry): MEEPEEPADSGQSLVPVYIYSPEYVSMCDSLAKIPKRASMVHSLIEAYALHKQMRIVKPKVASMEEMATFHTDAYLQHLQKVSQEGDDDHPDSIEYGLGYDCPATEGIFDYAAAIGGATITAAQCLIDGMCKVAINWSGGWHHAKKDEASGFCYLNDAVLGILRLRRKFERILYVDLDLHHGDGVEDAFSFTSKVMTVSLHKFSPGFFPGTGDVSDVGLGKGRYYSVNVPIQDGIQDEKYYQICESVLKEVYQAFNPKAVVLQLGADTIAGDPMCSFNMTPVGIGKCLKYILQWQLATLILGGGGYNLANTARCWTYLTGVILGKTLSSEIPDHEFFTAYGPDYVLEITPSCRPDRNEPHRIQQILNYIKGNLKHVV
Description: Binding affinity to HDAC8 in human HL60 cell nuclear extracts assessed as inhibition of enzyme binding to N-SAHA functionalised sepharose beads after 1 hr by coomassie staining-based chemoproteomic competition binding assay

[14] = target: T7, Polyamine deacetylase HDAC10 (Homo sapiens, UniProt Q969S8)
T7 sequence (Q969S8 whole entry): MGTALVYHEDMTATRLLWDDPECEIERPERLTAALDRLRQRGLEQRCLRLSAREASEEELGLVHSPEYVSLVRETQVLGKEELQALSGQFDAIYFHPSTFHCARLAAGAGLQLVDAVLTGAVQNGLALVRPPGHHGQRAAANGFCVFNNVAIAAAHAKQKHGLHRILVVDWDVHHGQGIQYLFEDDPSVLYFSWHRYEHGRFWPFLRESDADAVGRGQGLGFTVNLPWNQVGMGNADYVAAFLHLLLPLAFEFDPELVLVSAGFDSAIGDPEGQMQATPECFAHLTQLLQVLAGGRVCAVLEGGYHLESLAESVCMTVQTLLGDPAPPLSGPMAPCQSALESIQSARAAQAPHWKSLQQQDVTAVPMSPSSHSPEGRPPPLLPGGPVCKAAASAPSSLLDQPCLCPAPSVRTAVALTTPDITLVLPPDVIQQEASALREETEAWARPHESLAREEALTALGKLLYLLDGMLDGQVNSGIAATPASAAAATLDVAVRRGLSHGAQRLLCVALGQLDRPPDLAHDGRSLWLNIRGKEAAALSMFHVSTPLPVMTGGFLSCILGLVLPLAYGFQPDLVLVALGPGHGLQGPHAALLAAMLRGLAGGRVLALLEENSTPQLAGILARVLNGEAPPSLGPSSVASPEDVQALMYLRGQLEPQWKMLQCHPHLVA
Description: Binding affinity to HDAC10 in human HL60 cell nuclear extracts assessed as inhibition of enzyme binding to N-SAHA functionalised sepharose beads after 1 hr by coomassie staining-based chemoproteomic competition binding assay

Histone deacetylase 3 = Histone deacetylase 3 (Homo sapiens, UniProt O15379)
Chain of Histone deacetylase 3 (O15379 whole entry): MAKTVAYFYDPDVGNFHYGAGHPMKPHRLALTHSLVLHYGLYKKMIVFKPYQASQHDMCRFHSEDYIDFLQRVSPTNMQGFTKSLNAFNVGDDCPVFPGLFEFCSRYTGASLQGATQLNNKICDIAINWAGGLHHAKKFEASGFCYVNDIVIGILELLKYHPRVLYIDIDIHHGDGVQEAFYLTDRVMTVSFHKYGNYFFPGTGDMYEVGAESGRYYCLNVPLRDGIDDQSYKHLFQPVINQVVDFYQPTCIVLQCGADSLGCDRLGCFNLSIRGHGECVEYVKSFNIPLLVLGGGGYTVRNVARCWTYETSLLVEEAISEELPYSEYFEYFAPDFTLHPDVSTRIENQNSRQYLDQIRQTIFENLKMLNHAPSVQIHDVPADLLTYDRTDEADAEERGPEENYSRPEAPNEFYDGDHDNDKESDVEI
Description: Binding affinity to HDAC3 in human HL60 cell nuclear extracts assessed as inhibition of enzyme binding to N-SAHA functionalised sepharose beads after 1 hr by coomassie staining-based chemoproteomic competition binding assay

[15] = target: T1, Bromodomain-containing protein 4; assay: Inhibition of BRD4 bromodomain 2 (338 to 437) (unknown origin) by surface plasmon resonance analysis
[16] = target: T5, Protein deacetylase HDAC6; remark: listed apart in the source
Description: Binding affinity to HDAC6 in human HL60 cell nuclear extracts assessed as inhibition of enzyme binding to N-SAHA functionalised sepharose beads after 1 hr by coomassie staining-based chemoproteomic competition binding assay

[17] = target: T1, Bromodomain-containing protein 4; assay: Binding affinity to BRD4 in human HL60 cell nuclear extracts assessed as inhibition of protein binding to N-I-BET functionalised sepharose beads after 1 hr by coomassie staining-based staining-based chemoproteomic competition assay; design: species or system HL-60; conditions: read-out: Kd(app)
[18] = target: T4, Bromodomain-containing protein 2; assay: Binding affinity to BRD2 in human HL60 cell nuclear extracts assessed as inhibition of protein binding to N-I-BET functionalised sepharose beads after 1 hr by coomassie staining-based chemoproteomic competition binding assay; design: species or system HL-60; conditions: read-out: Kd(app)
Homo sapiens = species: Homo sapiens; assay: Inhibition of BET in human 11060 cells assessed as downregulation of c-Myc expression level at IC90 after 6 to 24 hrs by Western blotting analysis; assay type: cell-based

| Papp [1] | IC50 [2] | inhibition [4] | IC50 (Histone deacetylase 1 [5]) | inhibition [7] | inhibition [8] | IC50 (Histone deacetylase 9) | solubility ([3]; read-out: solubility) | IC50 [10] | Compound | further results |
| --- | --- | --- | --- | --- | --- | --- | --- | --- | --- | --- |
| 1.5 ×10⁻⁶ cm/s | > 50 µM | – | – | – | – | – | – | – | O=C(CCCCCCC(=O)Nc1ccccc1)NO [VORINOSTAT] | solubility [3]: 307 µM (≈ 81.1 µg/mL) |
| 0.8 ×10⁻⁶ cm/s | 0.36 µM | Active | 0.05 µM | Active | Active | 0.93 µM | > 442 µM | 1.29 µM | CC(=O)N1c2ccc(-c3ccccc3)cc2[C@H](NC(=O)CCCCCCC(=O)NO)C[C@@H]1C | – |
| < 0.3 ×10⁻⁶ cm/s | 0.05 µM | Active | 0.25 µM | Active | Active | 34.9 µM | 154 µM (≈ 85.1 µg/mL) | 0.42 µM | CC(=O)N1c2ccc(-c3ccc(NC(=O)CCCCCCC(=O)NO)cc3)cc2[C@H](NC(=O)OC(C)C)C[C@@H]1C | Kd [11]: 0.057 µM; Kd [12]: 0.07 µM; Kd (Histone deacetylase 2): 0.955 µM; Kd (Histone deacetylase 1 [13]): 0.331 µM; Kd (Histone deacetylase 8): 0.328 µM; Kd [14]: 0.207 µM; Kd (Histone deacetylase 3): 0.424 µM; Kd [15]: 0.053 µM; IC50 (PBMC [6]): 0.05 µM; Kd [16]: 0.236 µM; IC50 (cells): 0.832 µM; IC50 (MV4-11): 0.334 µM; Kd [17]: 0.112 µM; Kd [18]: 0.032 µM; IC50 (PBMC [9]): 0.219 µM; inhibition (Homo sapiens): Active; IC50 (HL-60): 0.764 µM |
| < 0.3 ×10⁻⁶ cm/s | 0.29 µM | – | 0.25 µM | – | – | 61.7 µM | > 182 µM | 1.74 µM | CC(=O)N1c2ccc(NC(=O)CCCCCCC(=O)NO)cc2[C@H](NC(=O)OC(C)C)C[C@@H]1C | – |

Continued, compound first:

| Compound | Papp [1] | IC50 [2] | inhibition [4] | IC50 (Histone deacetylase 1 [5]) | inhibition [7] | inhibition [8] | IC50 (Histone deacetylase 9) | solubility ([3]; read-out: solubility) | IC50 [10] | further results |
| --- | --- | --- | --- | --- | --- | --- | --- | --- | --- | --- |
| CNCc1ccc(-c2ccc3c(c2)[C@H](NC(=O)OC(C)C)C[C@H](C)N3C(C)=O)cc1 | 17.4 ×10⁻⁶ cm/s | 0.28 µM | Active | > 100 µM | Active | Active | > 100 µM | 357 µM (≈ 146 µg/mL) | – | IC50 (PBMC [6]): 0.001 µM; IC50 (cells): 0.306 µM; IC50 (MV4-11): 0.191 µM; IC50 (PBMC [9]): 0.005 µM; IC50 (HL-60): 0.381 µM |
| CC(=O)N1c2ccc(NC(=O)CCCCCCC(=O)O)cc2[C@H](NC(=O)OC(C)C)C[C@@H]1C | – | – | Active | – | Active | Active | – | – | – | – |
| CC(=O)N1c2ccc(NC(=O)CCCCCCC(=O)NO)cc2[C@H](Nc2ccccc2)C[C@@H]1C | 3.1 ×10⁻⁶ cm/s | 0.1 µM | – | 0.9 µM | – | – | 37.7 µM | 31 µM (≈ 14.5 µg/mL) | 0.98 µM | – |
